Test [1] has as its target T1, PxylOR16/PxylOrco (Plutella xylostella, UniProt V9SFT8).
T1 construct: no tag stated; with Odorant receptor coreceptor
T1 sequence (V9SFT8 1-405): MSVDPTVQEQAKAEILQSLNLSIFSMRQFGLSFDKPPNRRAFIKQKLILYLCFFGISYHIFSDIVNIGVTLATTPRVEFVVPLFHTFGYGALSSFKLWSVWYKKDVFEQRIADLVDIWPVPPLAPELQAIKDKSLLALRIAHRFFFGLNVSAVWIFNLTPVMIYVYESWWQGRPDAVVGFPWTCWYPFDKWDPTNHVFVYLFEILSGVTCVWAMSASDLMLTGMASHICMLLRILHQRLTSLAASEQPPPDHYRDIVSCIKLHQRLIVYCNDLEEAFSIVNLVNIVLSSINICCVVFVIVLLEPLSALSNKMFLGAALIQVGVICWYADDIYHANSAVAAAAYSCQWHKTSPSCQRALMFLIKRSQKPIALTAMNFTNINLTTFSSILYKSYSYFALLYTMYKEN
T1 sequence (D0EZE1 1-471 partner): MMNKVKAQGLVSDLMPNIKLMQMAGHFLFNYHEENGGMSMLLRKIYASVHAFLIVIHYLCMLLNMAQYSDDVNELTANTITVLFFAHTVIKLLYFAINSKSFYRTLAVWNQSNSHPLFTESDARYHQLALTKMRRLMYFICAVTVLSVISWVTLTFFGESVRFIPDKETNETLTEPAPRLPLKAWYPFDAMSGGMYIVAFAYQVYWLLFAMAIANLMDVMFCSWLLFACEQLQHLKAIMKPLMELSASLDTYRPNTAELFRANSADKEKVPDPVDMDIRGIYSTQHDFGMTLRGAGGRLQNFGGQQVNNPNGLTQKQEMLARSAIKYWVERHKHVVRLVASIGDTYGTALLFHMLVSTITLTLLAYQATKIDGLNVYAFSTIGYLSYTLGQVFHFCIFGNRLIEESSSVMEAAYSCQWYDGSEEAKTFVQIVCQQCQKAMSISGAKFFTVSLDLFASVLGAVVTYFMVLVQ
In words: two-electrode voltage clamp, Xenopus oocytes. Format: cell-based. As to conditions: agonist, co-expressed with PxylOrco, holding potential -80 mV, Ringer's buffer. For orientation: In two-electrode clamp one electrode senses voltage and the other passes current.

Test [2] addresses T1, PxylOR16/PxylOrco. Briefly: two-electrode voltage clamp, Xenopus oocytes. The test is classed as cell-based.

On to `CCCCCCCO` [1-heptanol], for which the “inward current response at 10^-4 M” value in test [1] was “they also responded weakly to two other volatiles (octyl acetate and 1-heptanol)”.

The term EC50 denotes the concentration giving half of the maximal effect. Read a high EC50 as weaker potency. In test [2], `CCCCCCC=O` [heptanal] had an EC50 of 17.6 µM. As for `CCCCCCCCOC(C)=O` [octyl acetate], in test [1] (weak agonist, 10^-4 M), the “inward current response at 10^-4 M” value was “they also responded weakly to two other volatiles (octyl acetate and 1-heptanol)”.

These data come from article PMC10935965, “An odorant receptor mediates the avoidance of Plutella xylostella against parasitoid” (BMC Biology, 2024).
